Results reported in patent US8959984B2, “Proteome-wide quantification of small molecule binding to cellular target proteins” (priority 2007, dated 2015).

Columns and labels:
Assay in all cases: binding to VI16742 beads (HeLa lysate, SILAC MS)
DAPK2 (IPI00033388) = molecular target: T1, DAPK2 (IPI00033388) (Homo sapiens, UniProt Q9UIK4)
T1 construct: endogenous in cells; host or cells: HeLa S3
In short: (§1)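 Kinases were captured on a resin carrying the broadly selective pyrido[2,3-d]pyrimidine-based kinase inhibitor. Proteins specifically retained by the inhibitor resin were scored as binders.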

DPH5 (IPI00375824) = molecular target: T2, DPH5 (IPI00375824) (Homo sapiens, UniProt Q9H2P9)
T2 construct: endogenous in cells; host or cells: HeLa S3
T2 sequence (Q9H2P9 1-285): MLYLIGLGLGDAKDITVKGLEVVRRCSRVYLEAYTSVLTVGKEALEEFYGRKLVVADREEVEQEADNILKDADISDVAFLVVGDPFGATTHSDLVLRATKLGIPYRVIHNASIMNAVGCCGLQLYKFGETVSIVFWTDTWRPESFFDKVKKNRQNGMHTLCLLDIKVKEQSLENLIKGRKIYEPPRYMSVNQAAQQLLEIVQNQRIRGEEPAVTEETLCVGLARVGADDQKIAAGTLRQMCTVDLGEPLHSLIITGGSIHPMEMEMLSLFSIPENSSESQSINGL
In short: as §1

[1] = molecular target: T3, MSK1 (RPS6KA5, IPI00335101) (Homo sapiens, UniProt O75582)
T3 construct: endogenous in cells; host or cells: HeLa S3
In short: as §1

[2] = molecular target: T4, PKACa (PRKACA, IPI00396630) (Homo sapiens, UniProt P17612)
T4 construct: endogenous in cells; host or cells: HeLa S3
In short: as §1

SART3 (IPI00006025) = molecular target: T5, SART3 (IPI00006025) (Homo sapiens, UniProt Q15020)
T5 construct: endogenous in cells; host or cells: HeLa S3
T5 sequence (Q15020 1-963): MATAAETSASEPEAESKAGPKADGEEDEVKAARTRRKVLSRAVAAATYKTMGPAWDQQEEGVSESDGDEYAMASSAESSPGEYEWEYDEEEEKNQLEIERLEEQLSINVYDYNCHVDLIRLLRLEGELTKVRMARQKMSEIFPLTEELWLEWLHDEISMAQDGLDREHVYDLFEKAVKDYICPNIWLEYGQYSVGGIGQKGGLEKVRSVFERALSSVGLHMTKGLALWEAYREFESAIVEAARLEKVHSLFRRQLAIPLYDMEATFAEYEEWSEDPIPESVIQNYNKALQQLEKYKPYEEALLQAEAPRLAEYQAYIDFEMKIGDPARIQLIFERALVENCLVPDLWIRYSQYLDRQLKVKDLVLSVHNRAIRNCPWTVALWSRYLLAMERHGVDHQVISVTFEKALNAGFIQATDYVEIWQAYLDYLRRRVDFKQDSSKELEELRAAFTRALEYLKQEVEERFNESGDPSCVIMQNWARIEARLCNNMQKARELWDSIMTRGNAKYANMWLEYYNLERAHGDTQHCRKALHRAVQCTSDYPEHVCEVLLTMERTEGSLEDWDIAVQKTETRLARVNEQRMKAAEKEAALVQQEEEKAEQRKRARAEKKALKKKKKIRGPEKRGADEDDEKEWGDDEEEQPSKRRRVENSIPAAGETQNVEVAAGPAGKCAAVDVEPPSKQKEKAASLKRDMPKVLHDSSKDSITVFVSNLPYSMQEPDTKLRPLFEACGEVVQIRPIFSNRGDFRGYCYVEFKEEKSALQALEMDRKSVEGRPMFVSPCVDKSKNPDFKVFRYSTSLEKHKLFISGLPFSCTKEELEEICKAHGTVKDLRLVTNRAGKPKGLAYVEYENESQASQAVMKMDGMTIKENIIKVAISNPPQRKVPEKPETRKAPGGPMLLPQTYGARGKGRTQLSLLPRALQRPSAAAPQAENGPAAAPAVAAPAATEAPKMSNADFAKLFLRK
In short: as §1

[3] = control beads vs first incubation

T3 sequence (O75582 whole entry): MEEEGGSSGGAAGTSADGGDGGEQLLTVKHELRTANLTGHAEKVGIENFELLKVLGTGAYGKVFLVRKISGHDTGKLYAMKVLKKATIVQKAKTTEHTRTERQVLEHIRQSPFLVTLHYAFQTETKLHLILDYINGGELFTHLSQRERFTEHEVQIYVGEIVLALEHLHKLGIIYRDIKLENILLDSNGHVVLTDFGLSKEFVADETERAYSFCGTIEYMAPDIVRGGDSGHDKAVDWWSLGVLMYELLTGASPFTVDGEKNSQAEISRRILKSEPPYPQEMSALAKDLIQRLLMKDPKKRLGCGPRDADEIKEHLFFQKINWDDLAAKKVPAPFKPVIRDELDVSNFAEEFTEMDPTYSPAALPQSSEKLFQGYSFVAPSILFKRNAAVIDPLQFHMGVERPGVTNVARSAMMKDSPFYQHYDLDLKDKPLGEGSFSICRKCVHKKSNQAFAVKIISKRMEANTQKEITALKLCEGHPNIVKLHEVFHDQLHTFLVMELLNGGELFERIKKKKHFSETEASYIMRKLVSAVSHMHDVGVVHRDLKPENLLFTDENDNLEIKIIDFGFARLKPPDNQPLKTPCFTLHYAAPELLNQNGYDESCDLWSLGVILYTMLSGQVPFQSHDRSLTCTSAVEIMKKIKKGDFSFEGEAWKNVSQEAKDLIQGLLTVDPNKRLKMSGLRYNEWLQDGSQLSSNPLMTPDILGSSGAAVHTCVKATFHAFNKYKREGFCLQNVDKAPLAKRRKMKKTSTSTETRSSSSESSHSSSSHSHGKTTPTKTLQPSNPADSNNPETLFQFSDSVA
T1 sequence (Q9UIK4 whole entry): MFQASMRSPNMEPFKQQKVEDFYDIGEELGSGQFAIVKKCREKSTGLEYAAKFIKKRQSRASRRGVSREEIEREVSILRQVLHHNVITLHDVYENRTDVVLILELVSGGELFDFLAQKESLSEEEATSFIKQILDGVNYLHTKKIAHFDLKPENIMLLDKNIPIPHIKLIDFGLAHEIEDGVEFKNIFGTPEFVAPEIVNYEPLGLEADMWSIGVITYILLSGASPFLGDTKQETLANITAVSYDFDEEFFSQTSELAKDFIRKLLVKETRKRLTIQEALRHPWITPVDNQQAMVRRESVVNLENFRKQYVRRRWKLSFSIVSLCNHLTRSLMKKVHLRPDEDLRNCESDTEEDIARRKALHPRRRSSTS

Compound: CC(C)n1c(=O)ccc2cnc(Nc3ccc(OCCN)cc3)nc21 [V16742]
- rAVERAGE (CTRL/1 INC) (DAPK2 (IPI00033388); [3]): 0.11
- Ki (DAPK2 (IPI00033388); immobilized VI16742): 171 µM
- rAVERAGE (2 INC/1 INC) (DAPK2 (IPI00033388); second vs first incubation): 0.77
- r (5 h/2.5 h INC. TIME) (DPH5 (IPI00375824); 5 h vs 2.5 h incubation time): 2.72
- rAVERAGE (CTRL/1 INC) (DPH5 (IPI00375824); [3]): 0.03
- Ki (DPH5 (IPI00375824); immobilized VI16742): 211 µM
- rAVERAGE (2 INC/1 INC) (DPH5 (IPI00375824); second vs first incubation): 0.80
- rAVERAGE (CTRL/1 INC) [1, 3]: 0.03
- Ki ([1]; immobilized VI16742): 217 µM
- rAVERAGE (2 INC/1 INC) ([1]; second vs first incubation): 0.81
- r (3 MG/1 MG LYSATE) ([2]; 3 mg vs 1 mg lysate): 2.18
- r (5 h/2.5 h INC. TIME) ([2]; 5 h vs 2.5 h incubation time): 1.76
- rAVERAGE (CTRL/1 INC) [2, 3]: 0.04
- Ki ([2]; immobilized VI16742): 305 µM
- rAVERAGE (2 INC/1 INC) ([2]; second vs first incubation): 0.85
- r (3 MG/1 MG LYSATE) (SART3 (IPI00006025); 3 mg vs 1 mg lysate): 2.07
- r (5 h/2.5 h INC. TIME) (SART3 (IPI00006025); 5 h vs 2.5 h incubation time): 0.90
- rAVERAGE (CTRL/1 INC) (SART3 (IPI00006025); [3]): 0.05
- Ki (SART3 (IPI00006025); immobilized VI16742): 126 µM
- rAVERAGE (2 INC/1 INC) (SART3 (IPI00006025); second vs first incubation): 0.71
